Results reported in ChEMBL document CHEMBL4359854, “Repurposing mosloflavone/5,6,7-trimethoxyflavone-resveratrol hybrids: Discovery of novel p38-α MAPK inhibitors as potent interceptors of macrophage-dependent production of proinflammatory mediators” (Eur J Med Chem, 2019).
Activity calls are given as the source filed them. The calls are words filed in the database; no cut-off is given here.

Key:
RAW264.7 [1] = assay: Effect on NO production in mouse RAW264.7 cells assessed as inhibition of NO production at 2 to 5 uM incubated for 24 hrs by Griess reagent-based assay; format: cell-based; details: raw264.7, 24 h
RAW264.7 [2] = assay: Anti-inflammatory activity in mouse RAW264.7 cells assessed as inhibition of LPS-induced NO production at 0.5 uM preincubated for 1 hr followed by LPS addition and measured after 24 hrs by Griess reagent-based assay; format: functional, cell-based
[3] = Cytotoxicity against LPS-induced mouse RAW264.7 cells assessed as cell viability at 1 uM incubated for 24 hrs by MTT assay relative to control; format: cell-based; details: LPS-induced RAW264.7 cells, read-out: Activity
RAW264.7 [4] = assay: Anti-inflammatory activity in mouse RAW264.7 cells assessed as inhibition of LPS-induced NO production at 1 uM preincubated for 1 hr followed by LPS addition and measured after 24 hrs by Griess reagent-based assay relative to control; format: functional
RAW264.7 [5] = assay: Anti-inflammatory activity in mouse RAW264.7 cells assessed as inhibition of LPS-induced NO production preincubated for 1 hr followed by LPS addition and measured after 24 hrs by Griess reagent-based assay; format: functional, cell-based
RAW264.7 [6] = assay: Anti-inflammatory activity in mouse RAW264.7 cells assessed as inhibition of LPS-induced PGE2 production at 1 uM preincubated for 1 hr followed by LPS addition and measured after 24 hrs by EIA relative to control; format: functional
RAW264.7 [7] = assay: Anti-inflammatory activity in mouse RAW264.7 cells assessed as inhibition of LPS-induced PGE2 production preincubated for 1 hr followed by LPS addition and measured after 24 hrs by EIA; format: functional, cell-based
RAW264.7 [8] = assay: Anti-inflammatory activity in mouse RAW264.7 cells assessed as inhibition of LPS-induced PGE2 production at 0.2 uM preincubated for 1 hr followed by LPS addition and measured after 24 hrs by EIA; format: functional, cell-based
RAW264.7 [9] = assay: Anti-inflammatory activity in mouse RAW264.7 cells assessed as inhibition of LPS-induced IL-6 production at 1 uM preincubated for 1 hr followed by LPS addition and measured after 24 hrs by EIA relative to control; format: functional
RAW264.7 [10] = assay: Anti-inflammatory activity in mouse RAW264.7 cells assessed as inhibition of LPS-induced IL-6 production preincubated for 1 hr followed by LPS addition and measured after 24 hrs by EIA; format: functional, cell-based
RAW264.7 [11] = assay: Anti-inflammatory activity in mouse RAW264.7 cells assessed as inhibition of LPS-induced IL-6 production at 0.5 uM preincubated for 1 hr followed by LPS addition and measured after 24 hrs by EIA; format: functional, cell-based
RAW264.7 [12] = assay: Anti-inflammatory activity in mouse RAW264.7 cells assessed as inhibition of LPS-induced IL-6 production at 1 to 5 uM preincubated for 1 hr followed by LPS addition and measured after 24 hrs by EIA; format: functional, cell-based
RAW264.7 [13] = assay: Effect on IL-6 production in mouse RAW264.7 cells assessed as increase in IL-6 production up to 5 uM measured after 1 hr by EIA; format: ADME, cell-based; details: raw264.7, 1 h
RAW264.7 [14] = assay: Anti-inflammatory activity in mouse RAW264.7 cells assessed as inhibition of LPS-induced TNFalpha production at 1 uM preincubated for 1 hr followed by LPS addition and measured after 24 hrs by EIA relative to control; format: functional
RAW264.7 [15] = assay: Anti-inflammatory activity in mouse RAW264.7 cells assessed as inhibition of LPS-induced TNFalpha production preincubated for 1 hr followed by LPS addition and measured after 24 hrs by EIA; format: functional, cell-based
RAW264.7 [16] = assay: Anti-inflammatory activity in mouse RAW264.7 cells assessed as inhibition of LPS-induced TNFalpha production at 0.5 uM preincubated for 1 hr followed by LPS addition and measured after 24 hrs by EIA; format: functional, cell-based
RAW264.7 [17] = assay: Effect on TNF-alpha production in mouse RAW264.7 cells assessed as increase in TNFalpha production at up to 5 uM measured after 1 hr by EIA; format: ADME, cell-based; details: raw264.7, 1 h
RAW264.7 [18] = assay: Anti-inflammatory activity in mouse RAW264.7 cells assessed as inhibition of LPS-induced IL-1beta production at 1 uM preincubated for 1 hr followed by LPS addition and measured after 24 hrs by EIA relative to control; format: functional
RAW264.7 [19] = assay: Anti-inflammatory activity in mouse RAW264.7 cells assessed as inhibition of LPS-induced PGE2 production at 40 nM preincubated for 1 hr followed by LPS addition and measured after 24 hrs by EIA; format: functional, cell-based
[20] = molecular target: Mitogen-activated protein kinase 14 (Mus musculus) (UniProt P47811); assay: Inhibition of p38alpha MAPK in LPS-stimulated mouse RAW264.7 cells assessed as reduction in p38alpha MAPK phosphorylation at 5 uM incubated for 60 mins by Western blot analysis; format: cell-based
Chain of Mitogen-activated protein kinase 14 (Mus musculus) (P47811 whole entry): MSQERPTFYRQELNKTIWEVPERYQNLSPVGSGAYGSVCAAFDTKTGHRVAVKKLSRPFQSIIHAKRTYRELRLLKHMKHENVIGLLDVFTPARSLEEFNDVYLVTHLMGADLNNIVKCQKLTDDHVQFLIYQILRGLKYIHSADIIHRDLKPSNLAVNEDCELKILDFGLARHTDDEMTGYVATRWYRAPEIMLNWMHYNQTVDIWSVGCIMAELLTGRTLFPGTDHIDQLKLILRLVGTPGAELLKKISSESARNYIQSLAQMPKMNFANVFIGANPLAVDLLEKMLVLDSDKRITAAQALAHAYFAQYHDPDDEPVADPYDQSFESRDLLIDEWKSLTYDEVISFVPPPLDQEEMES

[21] = molecular target: Mitogen-activated protein kinase 14 (Mus musculus) (UniProt P47811); assay: Inhibition of p38alpha MAPK in LPS-stimulated mouse RAW264.7 cells assessed as reduction in MK2 phosphorylation at 5 uM by Western blot analysis; format: cell-based; details: TDE = time-dependent effect

Row | Compound | viability at 24 h, 1 µM [3] [%] | inhibition at 1 µM (RAW264.7 [4]) [%] | inhibition at 1 µM (RAW264.7 [6]) [%] | inhibition at 1 µM (RAW264.7 [9]) [%] | inhibition at 1 µM (RAW264.7 [14]) [%] | inhibition at 1 µM (RAW264.7 [18]) [%] | other results
1 | COc1cc(NC(=O)c2cccc(-c3cc(=O)c4c(OC)c(OC)c(OC)cc4o3)c2)cc(OC)c1OC | 113 | 48.3 | 11.2 | 31.9 | 28.6 | 143 | Activity (RAW264.7 [1]): Non-Toxic; inhibition (RAW264.7 [2]): inactive; IC50 (RAW264.7 [5]): 2.75 µM; inhibition (RAW264.7 [5]): Dose-dependent effect; IC50 (RAW264.7 [7]): 3.4 µM; inhibition (RAW264.7 [7]): Dose-dependent effect; inhibition (RAW264.7 [8]): inactive; inhibition (RAW264.7 [10]): Dose-dependent effect; inhibition (RAW264.7 [11]): Active; inhibition (RAW264.7 [12]): Active; Activity (RAW264.7 [13]): Non-Toxic; inhibition (RAW264.7 [15]): Dose-dependent effect; inhibition (RAW264.7 [16]): Active; Activity (RAW264.7 [17]): Non-Toxic
2 | COc1cc2oc(-c3ccc(NC(=O)c4ccccc4)cc3)cc(=O)c2c(OC)c1OC | 109 | 9.71 | 7 | -23.2 | -8.22 | -30.2 | –
3 | COc1cccc(NC(=O)c2cccc(-c3cc(=O)c4c(O)c(OC)c(OC)cc4o3)c2)c1 | 103 | 10.9 | 35.4 | 1.96 | 5.85 | 18.5 | –
4 | COc1cccc(C(=O)Nc2cccc(-c3cc(=O)c4c(O)c(OC)c(OC)cc4o3)c2)c1 | 109 | 6.46 | 35.4 | -6.92 | 33.8 | 35.8 | –
5 | COc1ccc(NC(=O)c2cccc(-c3cc(=O)c4c(OC)c(OC)c(OC)cc4o3)c2)cc1 | 90 | 6.87 | 2.29 | 19.2 | 25.3 | 128 | –
6 | COc1ccc(NC(=O)c2cccc(-c3cc(=O)c4c(O)c(OC)c(OC)cc4o3)c2)cc1 | 92.8 | -10.3 | 3.44 | 10.2 | -0.1 | 13.1 | –
7 | COc1ccccc1NC(=O)c1cccc(-c2cc(=O)c3c(OC)c(OC)c(OC)cc3o2)c1 | 101 | 20.6 | 42.5 | -32.2 | 22.9 | 71.2 | IC50 (RAW264.7 [7]): 1.99 µM; inhibition (RAW264.7 [7]): Dose-dependent effect; inhibition (RAW264.7 [8]): Active
8 | COc1ccccc1C(=O)Nc1cccc(-c2cc(=O)c3c(OC)c(OC)c(OC)cc3o2)c1 | 99.8 | 1.11 | 33.9 | -15.8 | -83.9 | 25.2 | –
9 | COc1ccc(C(=O)Nc2ccc(-c3cc(=O)c4c(OC)c(OC)c(OC)cc4o3)cc2)cc1 | 92.4 | 3.26 | 36.8 | -40.9 | 27.4 | -2.33 | –
10 | COc1cc2oc(-c3cccc(C(=O)Nc4ccccc4)c3)cc(=O)c2c(OC)c1OC | 90.6 | 13 | -10.9 | 12.5 | 24.2 | 86.8 | –
11 | COc1ccc(C(=O)Nc2cccc(-c3cc(=O)c4c(O)c(OC)c(OC)cc4o3)c2)cc1 | 105 | 6.52 | 52.7 | -7.54 | 48.2 | 34.6 | –
12 | COc1ccccc1C(=O)Nc1ccc(-c2cc(=O)c3c(OC)c(OC)c(OC)cc3o2)cc1 | 108 | 7.04 | 78.8 | -50 | -51.3 | 14.5 | IC50 (RAW264.7 [7]): 0.59 µM; inhibition (RAW264.7 [7]): Dose-dependent effect; inhibition (RAW264.7 [19]): Active; inhibition [20]: Active; inhibition [21]: Tde
13 | COc1cc2oc(-c3cccc(NC(=O)c4ccccc4)c3)cc(=O)c2c(OC)c1OC | 95.8 | 3.31 | -11.3 | -17 | 20.9 | 16.5 | –
14 | COc1cc2oc(-c3cccc(NC(=O)c4ccc5c(c4)OCO5)c3)cc(=O)c2c(OC)c1OC | 116 | 7.13 | 17.1 | -9.56 | -40.6 | 38.2 | –
15 | COc1cc2oc(-c3cccc(C(=O)Nc4ccc5c(c4)OCO5)c3)cc(=O)c2c(O)c1OC | 97.1 | -5.15 | -2.8 | 12.8 | -7.5 | 27.1 | –
16 | COc1cccc(NC(=O)c2cccc(-c3cc(=O)c4c(OC)c(OC)c(OC)cc4o3)c2)c1 | 84.2 | 12.3 | -11.4 | 7.66 | 34.1 | 82.6 | –
17 | COc1ccc(C(=O)Nc2cccc(-c3cc(=O)c4c(OC)c(OC)c(OC)cc4o3)c2)cc1 | 102 | 11.1 | 6.21 | -12.5 | 20.4 | 12.2 | –
18 | COc1cc2oc(-c3cccc(C(=O)Nc4ccccc4)c3)cc(=O)c2c(O)c1OC | 103 | 5.15 | 20 | -5.27 | 45.6 | 23.3 | –
19 | COc1cccc(C(=O)Nc2ccc(-c3cc(=O)c4c(OC)c(OC)c(OC)cc4o3)cc2)c1 | 111 | 9.41 | 16.1 | -47.5 | -9.17 | 4.65 | –
20 | COc1ccccc1NC(=O)c1cccc(-c2cc(=O)c3c(O)c(OC)c(OC)cc3o2)c1 | 99.4 | 7.19 | 50.5 | -21.4 | 36.1 | -2.41 | IC50 (RAW264.7 [7]): 2.38 µM; inhibition (RAW264.7 [7]): Dose-dependent effect; inhibition (RAW264.7 [8]): Active
21 | COc1cc2oc(-c3cccc(C(=O)Nc4ccc5c(c4)OCO5)c3)cc(=O)c2c(OC)c1OC | 92 | 17 | 16.1 | 25.7 | 9.94 | -54.4 | –
22 | COc1cc2oc(-c3ccc(NC(=O)c4ccc5c(c4)OCO5)cc3)cc(=O)c2c(OC)c1OC | 63 | – | – | – | – | – | –
23 | COc1cc2oc(-c3cccc(NC(=O)c4ccc5c(c4)OCO5)c3)cc(=O)c2c(O)c1OC | 104 | 7.46 | 49.3 | -6.67 | -12.1 | 11.6 | –
24 | COc1cccc(C(=O)Nc2cccc(-c3cc(=O)c4c(OC)c(OC)c(OC)cc4o3)c2)c1 | 117 | 19.9 | 2.62 | -52.5 | -88 | 75.6 | –
